Data reported in patent US11291659B2, “P38 kinase inhibitors reduce DUX4 and downstream gene expression for the treatment of FSHD” (Fulcrum Therapeutics, Inc., priority 2017, dated 2022).

Tested on: DUX4-fl mRNA
Assay: DUX4-fl mRNA by nested qPCR in FSHD myotubes
Type: cell-based, Human
Conditions: 10, 100, and 1000 nM vs DMSO
Method: In a 6 well plate, 450 μL Buffer RLT Plus was added. Lysate was homogenized by transfer the lysate to a gDNA Eliminator spin column placed in a 2 mL collection tube (supplied), centrifuged for 30 s at ≥8000×g (≥10,000 rpm) and discarded column while saving the flow-through. Then 250 μL of Ethanol (35% final) was added to the flow-through, and mixed well by pipetting, not centrifuged. Then samples were transferred, including any precipitate that may have formed, to an RNeasy MinElute spin column placed in a 2 mL collection tube (supplied). Then centrifuged for 15 s at […]. Flow-through was discarded or collected for Protein precipitation. 700 μL Buffer RW1 to the RNeasy MinElute spin column was added then centrifuge for 15 s at ≥8000×g. and discard the flow-through. DNAse treatment was performed by gently mixing 10 μL DNAseI with 70 μL of Buffer RDD and added directly to the column, incubated at room temperature for 20 min. Then, 700 μL Buffer RW1 (per manufactures specification) to the RNeasy MinElute spin column, centrifuged for 15 s at ≥8000×g. and the flow-through discarded. 500 μL Buffer RPE was added to the RNeasy MinElute spin column centrifuged for 15 s at ≥8000×g and discarded the flow-through. […]
cDNA preparation. […] 10 seconds then read plate on QuantStudio7 as per manufactures instruction (Thermo). […]

For `Cn1c(=O)c(Oc2ccc(F)cc2F)cc2cnc(NC(CCO)CCO)nc21` [Pamapimod, 6-(2,4-difluorophenoxy)-2-((1,5-dihydroxypentan-3-yl)amino)-8-methylpyrido[2,3-d]pyrimidin-7(8H)-one], the “DUX4-fl mRNA levels normalized to POLR2A mRNA” value was “dose-dependently reduced”.
